Measured values taken from US6608086B2, “Dihydropyridines and new uses thereof” (Synaptic Pharmaceutical Corporation, priority 1993, dated 2003).
Structures can show the parent of a compound that is named as a salt. Where two headings read alike, the source gives them in different places.

Columns and labels:
α2C receptor = molecular target: T1, α2C receptor (Homo sapiens, UniProt P18825); experiment: Competition binding, [3H]rauwolscine, human α2C receptor
T1 construct: host or cells: LM(tk-) cells, line L-α2C
T1 sequence (P18825 1-462): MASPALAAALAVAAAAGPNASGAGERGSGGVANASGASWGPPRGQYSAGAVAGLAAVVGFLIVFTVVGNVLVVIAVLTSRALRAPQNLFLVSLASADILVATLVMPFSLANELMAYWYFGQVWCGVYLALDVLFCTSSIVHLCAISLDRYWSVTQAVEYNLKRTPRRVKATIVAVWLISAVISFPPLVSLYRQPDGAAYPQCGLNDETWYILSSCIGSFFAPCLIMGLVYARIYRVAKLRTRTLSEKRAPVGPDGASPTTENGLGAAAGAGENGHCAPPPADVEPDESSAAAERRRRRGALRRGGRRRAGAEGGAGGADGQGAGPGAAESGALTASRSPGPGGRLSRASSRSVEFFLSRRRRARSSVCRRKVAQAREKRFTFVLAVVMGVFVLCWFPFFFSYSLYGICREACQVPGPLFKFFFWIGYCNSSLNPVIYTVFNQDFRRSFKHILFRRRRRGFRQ
Outline: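 Lysates of LM(tk−) cells stably expressing each α2 subtype were suspended in 25 mM glycylglycine buffer (pH 7.6 at room temperature). Equilibrium competition binding used 0.5 nM [3H]rauwolscine, with nonspecific binding defined by 10 μM phentolamine; bound radioligand was separated by GF/B filtration.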

[1] = molecular target: T2, α1A Human Adrenergic Receptor (Homo sapiens, UniProt P25100); experiment: Radioligand binding, [3H]prazosin, cloned human α1A adrenergic receptor
T2 construct: The entire coding region of α1A (1719 bp); expressed in transfected cells
T2 sequence (P25100 1-572): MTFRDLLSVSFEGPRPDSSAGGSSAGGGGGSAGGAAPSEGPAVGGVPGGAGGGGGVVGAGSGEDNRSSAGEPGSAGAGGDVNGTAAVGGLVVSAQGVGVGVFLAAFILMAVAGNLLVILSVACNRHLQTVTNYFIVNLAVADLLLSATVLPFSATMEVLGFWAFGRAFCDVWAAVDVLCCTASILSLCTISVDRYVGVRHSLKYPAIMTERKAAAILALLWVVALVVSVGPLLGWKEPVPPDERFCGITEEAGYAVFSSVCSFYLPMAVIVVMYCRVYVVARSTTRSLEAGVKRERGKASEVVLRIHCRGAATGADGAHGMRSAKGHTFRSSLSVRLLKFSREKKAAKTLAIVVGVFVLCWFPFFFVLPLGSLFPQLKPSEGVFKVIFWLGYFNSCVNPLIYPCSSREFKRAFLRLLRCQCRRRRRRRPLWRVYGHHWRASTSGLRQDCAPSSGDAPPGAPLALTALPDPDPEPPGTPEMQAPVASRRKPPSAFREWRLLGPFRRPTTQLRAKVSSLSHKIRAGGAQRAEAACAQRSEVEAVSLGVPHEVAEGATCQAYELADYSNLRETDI
Outline: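 Competition binding used membrane preparations of transfected LM(tk−) cells and the α1 antagonist [3H]prazosin at 0.5 nM, incubated 20 min at 37° C in Tris-HCl buffer, pH 7.5.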

[2] = molecular target: T3, α1C Human Adrenergic Receptor (Homo sapiens, UniProt P35348); experiment: Radioligand binding, [3H]prazosin, cloned human α1C adrenergic receptor
T3 construct: The entire coding region of α1C (1401 bp); expressed in transfected cells
T3 sequence (P35348 1-466): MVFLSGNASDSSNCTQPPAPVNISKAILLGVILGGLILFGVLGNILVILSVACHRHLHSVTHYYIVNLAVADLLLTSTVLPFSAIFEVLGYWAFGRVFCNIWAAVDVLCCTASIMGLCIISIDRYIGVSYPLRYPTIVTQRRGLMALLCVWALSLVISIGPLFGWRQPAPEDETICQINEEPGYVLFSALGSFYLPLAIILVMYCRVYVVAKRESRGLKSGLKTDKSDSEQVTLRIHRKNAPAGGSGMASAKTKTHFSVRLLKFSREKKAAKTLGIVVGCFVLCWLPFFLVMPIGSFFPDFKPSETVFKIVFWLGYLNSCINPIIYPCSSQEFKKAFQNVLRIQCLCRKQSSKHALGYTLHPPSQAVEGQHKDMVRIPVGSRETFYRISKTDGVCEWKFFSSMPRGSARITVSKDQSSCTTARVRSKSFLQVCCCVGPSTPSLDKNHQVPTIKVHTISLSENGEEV
Outline: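 Membranes from LM(tk−) cells stably expressing the cloned human α1C receptor were incubated with 0.5 nM [3H]prazosin at 37° C. for 20 min in 50 mM Tris-HCl, 1 mM MgCl2, 0.1% ascorbic acid, pH 7.5. Nonspecific binding was defined with 10 μM phentolamine, and bound ligand was separated by GF/B filtration.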

[3] = [3H]rauwolscine, LM(tk-) cell line L-α2C, SEM and n in lines below
[4] = [3H]prazosin, cloned human receptor in LM(tk-) cell membranes, SEM and n in lines below
[5] = cloned human receptor in LM(tk-) cell membranes, SEM and n in lines below
[6] = cloned human receptor, LM(tk-) cell membranes, mean, read-out: PKi alpha-1 1c (converted)
[7] = [3H]rauwolscine, human receptor, LM(tk-) cell lysates, mean, read-out: PKi alpha-2 2c (converted)
[8] = [3H]prazosin, cloned human receptor, LM(tk-) cell membranes, mean, read-out: PKi alpha-1 1a (converted)
[9] = [3H]rauwolscine, LM(tk-) cell line L-α2C, SEM and n in lines below, read-out: pKi alpha-2 2c (converted)
[10] = [3H]prazosin, cloned human receptor in LM(tk-) cell membranes, SEM and n in lines below, read-out: pKi alpha-1 1a (converted)
[11] = cloned human receptor in LM(tk-) cell membranes, SEM and n in lines below, read-out: pKi alpha-1 1c (converted)
[12] = cloned human α1C receptor, LM(tk-) cell membranes, read-out: PKi alpha-1 1c (converted)

CC1=C(C(N)=O)C(c2ccc([N+](=O)[O-])cc2)C(C(=O)NC2CCN(Cc3ccccc3)CC2)=C(c2ccoc2)N1.Cl.O (stereo not drawn) [Example 66]
pKi alpha-2 2c (α2C receptor; [3]): 6.24
pKi alpha-1 1a [1, 4]: 5.45
pKi alpha-1 1c [2, 5]: 6.59

CCC1=C(C(=O)OC)C(c2ccc([N+](=O)[O-])cc2)C(C(=O)NCCCN2CCC(C(=O)OC)(c3ccccc3)CC2)=C(COCCN)N1 (stereo not drawn) [Example 235, 2-((2-Aminoethyl)oxy)methyl-6-ethyl-1,4-dihydro-5-methoxycarbonyl-3-(N-(3-(4-methoxycarbonyl-4-phenylpiperidin-1-yl)propyl))carboxamido-4-(4-nitro)phenylpyridine]
Ki (α2C receptor; PKi alpha-2 2c): 1.02 µM
Ki ([1]; PKi alpha-1 1a): 0.282 µM
Ki [2, 6]: 0.00209 µM

CCNC(=O)C1=C(CC)NC(CC)=C(C(=O)NCCCN2CCC(C(=O)OCC)(c3ccccc3)CC2)C1c1ccc([N+](=O)[O-])cc1 (stereo not drawn) [Example 182, 2,6-Diethyl-1,4-dihydro-3-{N-[3-(4-ethoxycarbonyl-4-phenylpiperidin-1-yl)propyl]}carboxamido-5-(N-ethyl)carboxamido-4(4-nitrophenyl)pyridine]
Ki (α2C receptor; PKi alpha-2 2c): 1.15 µM
Ki ([1]; PKi alpha-1 1a): 3.39 µM
Ki [2, 6]: 0.00224 µM

CCOC(=O)C1(c2ccccc2)CCN(CCCNC(=O)C2=C(COCCN)NC(CC)=C(C(=O)O)C2c2ccc([N+](=O)[O-])cc2)CC1 (stereo not drawn) [Example 196, 2-[(2-Aminoethoxy)methyl]-3-{N-[3-(4-ethoxycarbonyl-4-phenylpiperidin-1-yl)propyl]}carboxamido-1,4-dihydro-6-ethyl-4-(4-nitrophenyl)pyridine-5-carboxylic Acid]
Ki (α2C receptor; [7]): 3.09 µM
Ki [1, 8]: 6.76 µM
Ki [2, 6]: 0.0389 µM

COC(=O)C1=C(C)NC(C)=C(C(=O)NCCCN2CCc3cc(OC)c(OC)cc3C2)C1c1ccc([N+](=O)[O-])cc1 (stereo not drawn) [Example 57, 1,4-Dihydro-3-methoxycarbonyl-5-{N-[3-(1,2,3,4-tetrahydro-6,7-dimethoxyisoquinolin-2-yl)propyl]}carboxamido-2,6-dimethyl-4-(4-nitrophenyl)pyridine hydrochloride hydrate]
Ki (α2C receptor; [9]): 0.158 µM
Ki [1, 10]: 1.62 µM
Ki [2, 11]: 0.603 µM

CC(=O)C1=C(C)NC(COCCN)=C(C(=O)NCCCN2CCC(c3ccccc3)(c3ccccc3)CC2)C1c1ccc(F)cc1 (stereo not drawn) [Example 242, 5-Acetyl-2-((2-aminoethyl)oxy)methyl-4-(4-fluoro)phenyl-1,4-dihydro-6-methyl-3-(N-(3-(4,4-diphenylpiperidin-1-yl)propyl))carboxamidopyridine]
Ki (α2C receptor; PKi alpha-2 2c, [3H]rauwolscine, human α2C receptor, LM(tk-) cells): 0.257 µM
Ki ([1]; PKi alpha-1 1a, [3H]prazosin, cloned human α1A receptor, LM(tk-) cell membranes): 0.224 µM
Ki ([2]; PKi alpha-1 1c, cloned human α1C receptor, LM(tk-) cell membranes): 0.00398 µM

COC(=O)C1(c2ccccc2)CCN(CCCNC(=O)C2=C(COCCN)NC(C)=C(C(C)=O)C2c2ccc(F)cc2)CC1 (stereo not drawn) [Example 245, 5-Acetyl-2-((2-aminoethyl)oxy)methyl-4-(4-fluoro)phenyl-1,4-dihydro-3-(N-3-(4-methoxycarbonyl-4-phenylpiperidin-1-yl)propyl)carboxamido-6-methylpyridine]
Ki (α2C receptor; [3H]rauwolscine, human α2C receptor, LM(tk-) cells, read-out: PKi alpha-2 2c (converted)): 0.316 µM
Ki ([1]; [3H]prazosin, cloned human α1A receptor, LM(tk-) cell membranes, read-out: PKi alpha-1 1a (converted)): 0.977 µM
Ki [2, 12]: 0.00501 µM

CC1=C(C(N)=O)C(c2ccc([N+](=O)[O-])cc2)C(C(=O)NCCCN2CCC(c3ccccc3)CC2)=C(C)N1 (stereo not drawn) [Example 60, 5-Carboxamido-1,4-dihydro-2,6-dimethyl-4-(4-nitrophenyl)-3-{N-[3-(4-phenylpiperidin-1-yl)propyl]}carboxamidopyridine]
Ki (α2C receptor; [9]): 0.0676 µM
Ki [1, 10]: 0.2 µM
Ki [2, 11]: 0.00275 µM

CCC1=C(C(=O)NC)C(c2ccc([N+](=O)[O-])cc2)C(C(=O)NCCCN2CCC(C(=O)OC)(c3ccccc3)CC2)=C(COCCN)N1 (stereo not drawn) [Example 229, 2-((2-Aminoethyl)oxy)methyl-6-ethyl-1,4-dihydro-3-(N-(3-(4-methoxycarbonyl-4-phenylpiperidin-1-yl)propyl))carbo xamido-5-N-methylcarboxamido-4-(4-nitro)phenylpyridine]
Ki (α2C receptor; [7]): 0.891 µM
Ki [1, 8]: 4.17 µM
Ki [2, 6]: 0.00708 µM

COC(=O)C1=C(C)NC(C)=C(C(=O)NCCCN2CCC(c3ccccc3)CC2)C1c1ccc(Cl)c([N+](=O)[O-])c1 (stereo not drawn) [Example 17, 4-(4-Chloro-3-nitrophenyl)-1,4-dihydro-3-methoxycarbonyl-2,6-dimethyl-5-(N-(3-(4-phenylpiperidin-1-yl)propyl)carboxamido)pyridine]
Ki (α2C receptor; [9]): 0.0269 µM
Ki [1, 10]: 0.126 µM
Ki [2, 11]: 0.000537 µM

CC(=O)C1=C(C)NC(C)=C(C(=O)NCCCN2CCC(c3ccccc3)(c3ccccc3)CC2)C1c1ccc([N+](=O)[O-])cc1 (stereo not drawn) [Example 47, 5-Acetyl-1,4-dihydro-2,6-dimethyl-4-(4-nitrophenyl)-3-{N-[3-(4,4-diphenylpiperidin-1-yl)propyl]}carboxamidopyridine]
pKi alpha-2 2c (α2C receptor; [3]): 6.43
pKi alpha-1 1a [1, 4]: 6.29
pKi alpha-1 1c [2, 5]: 8.93

COC(=O)C1=C(C)NC(C)=C(C(=O)NCCCN2CCC(c3ccccc3)CC2)C1c1cccc([N+](=O)[O-])c1 (stereo not drawn) [Example 30, 1,4-Dihydro-3-methoxycarbonyl-2,6-dimethyl-4-(3-nitrophenyl)-5-(N-(3-(4-phenylpiperidin-1-yl)propyl)carboxamido)pyridine]
Ki (α2C receptor; [9]): 0.049 µM
Ki [1, 10]: 0.155 µM
Ki [2, 11]: 0.00302 µM

COC(=O)C1=C(C)NC(C)=C(C(=O)NCCCN2CCC(c3ccccc3)(c3ccccc3)CC2)C1c1cccc([N+](=O)[O-])c1 (stereo not drawn) [Example 249, 1,4-Dihydro-3-methoxycarbonyl-2,6-dimethyl-4-(3-nitrophenyl)-5-(N-(3-(4,4-diphenylpiperidin-1-yl)propyl)carboxamido)-pyridine]
PKi alpha-2 2c (α2C receptor): 6.25
PKi alpha-1 1a [1]: 6.37
Ki [2, 12]: 0.000389 µM

CCC1=C(C(N)=O)C(c2ccc([N+](=O)[O-])cc2)C(C(=O)NCCCN2CCC(c3ccccc3)(c3ccccc3)CC2)=C(CCCCN)N1 (stereo not drawn) [Example 171, 2-(4-Aminobutyl)-5-carboxamido-6-ethyl-1,4-dihydro-4-(4-nitrophenyl)-3-{N-[3-(4,4-diphenylpiperidin-1-yl)propyl]}carboxamidopyridine]
Ki (α2C receptor; [7]): 0.575 µM
Ki ([1]; PKi alpha-1 1a, [3H]prazosin, cloned human receptor, LM(tk-) cell membranes, mean): 1.05 µM
Ki ([2]; PKi alpha-1 1c, cloned human receptor, LM(tk-) cell membranes, mean): 0.00174 µM
